How the values were obtained:
[1] = system: 4T1 metastatic breast cancer cells; type: cell-based; settings: cisplatin 50 uM, PI fluorescence
Experimental: The cell death stain propidium iodide (PI) was added and the cells were observed by time-lapse videomicroscopy. Cytotoxicity was determined by measuring the PI fluorescence intensity at each time point using ImageJ (NIH).
Cells were observed by time-lapse videomicroscopy in the presence of the cell death dye propidium iodide.

[2] = system: various cancer cell lines; assay: Propidium iodide time-lapse cytotoxicity / mean time to death in various cancer cell lines infected with P. aeruginosa expressing exotoxin; type: cell-based; settings: listed cancer cell lines, FIG. 4
Experimental: FIG. 4 is a table summarizing the effect of Pseudomonas exotoxins on various cancer cell lines. Pseudomonas exotoxins are able to kill a variety of cancer cell lines. Listed cell lines were infected with Pseudomonas aeruginosa expressing either ExoU, ExoS, or ExoT in the presence of the cell death dye propidium iodide and observed by time-lapse videomicroscopy. Based on PI staining analysis, the mean time to death was determined for each cell line. […] (ND: no death).
For example, ExoU kills 100% of highly metastatic breast cancer cell line 4T1 within 2-3 hours, as indicated by propidium iodide (PI) staining (red) in FIG. 1.

A375 cells [3] = type: cell-based; settings: versus GAP domain alone, GAP/ADPRT double mutant or GFP alone
Experimental: B16 and A375 cells were transfected with either GFP-fused ExoT, GAP and/or ADPRT domain mutants or GFP vector alone. Cytotoxicty was determined by positive propidium iodide staining.
We also discovered that ExoT is effective in killing the melanoma cell lines B16 and A375. B16 cells shown here were transfected with either a GFP expressing vector or ExoT directly fused to GFP. Cells were imaged in the presence of the cell death dye propidium iodide and observed by time-lapse videomicroscopy.

A375 cells [4] = assay: Mitotic events by time-lapse video microscopy after transfection; type: cell-based; settings: vector alone ~33%
Text: A375 cells were transfected with ExoT, the GAP or ADPRT domain mutants or GFP vector alone. Cells were observed by time-lapse video microscopy. The number of mitotic events per cells in each field of view was counted.

B16 cells = assay: Cell motility tracking by time-lapse video microscopy; type: cell-based; settings: tracked over a 10 h period, versus GFP transfected cells
Experimental: B16 cells were transfected with ExoT, the GAP or ADPRT domain mutants or GFP vector alone. Cells were observed by time-lapse video microscopy and tracked over a 10 h period using ImageJ (NIH). The mean track length during this time is shown. […] Importantly, ExoT could have an impact on reducing metastasis of cancer cells.

A375 melanoma cells = assay: Proliferation by phase time-lapse videomicroscopy after transfection; type: cell-based
HeLa cells = assay: Apoptosis and apoptotic compensatory proliferation signaling; type: cell-based
Text: It has long been postulated that dying cells induce compensatory proliferation in neighboring cells as a means to control homeostasis and maintain tissue integrity but the players and the mechanisms involved in the compensatory proliferation signaling have remained unknown.

[5] = system: cancer cells that are resistant to its cytotoxicity; assay: G1 cell cycle arrest in cancer cells resistant to ExoT cytotoxicity; type: cell-based; settings: all cancer cells examined that are resistant to ExoT cytotoxicity
Text: (v) Exotoxin T is also a potent anti-proliferative agent. […] This feature can be quite useful in combination therapy.

[6] = synthetic substrate; cited from earlier work
Rho, Rac, and Cdc42 = settings: cited from earlier work

With ExoT the “cytotoxicity compared with cisplatin” value [1] was “more potent cytotoxicity than cisplatin”, the “speed of killing and potency (mean time to death by PI staining)” value [2] was “less potent and unable to kill some cell lines” and the “cytotoxicity (positive propidium iodide staining)” value (A375 cells [3]) was “significantly greater cytotoxicity”. The mitotic cells (A375 cells [4]) was “complete block of mitotic cells”, the mean track length (B16 cells) was “significantly shorter track lengths” and the cell division (A375 melanoma cells) was “blocked cell division”. The apoptosis (HeLa cells; HeLa) was “induces potent apoptosis”, the “formation of compensatory complexes and induction of proliferation in surrounding cells” value (HeLa cells; apoptotic HeLa cells) was “interferes with the ability of apoptotic HeLa cells to form compensatory complexes and induce proliferation in the surrounding cells” and the cell cycle arrest [5] was “complete G1cell cycle arrest”. For the same substance, the “ADPRT activity in vitro compared to ExoS” value [6] was 0.2%.

With ExoS the “cytotoxicity compared with cisplatin” value [1] was “more potent cytotoxicity than cisplatin” and the “speed of killing and potency (mean time to death by PI staining)” value [2] was “fastest killing and greatest potentcy”.

For “R149K: ExoT with the invariant arginine of the GAP domain mutated to lysine”, the “GAP activity in vitro” value (Rho, Rac, and Cdc42) is listed as “complete loss of GAP activity”.
